Source: PMC8121805, “Discovery of first-in-class inhibitors of ASH1L histone methyltransferase with anti-leukemic activity” (Nature Communications, 2021)
Values joined by “and” are separate entries in the source; they are usually repeats but may differ in a detail not shown here. Identical values can stand only once.

What was measured:
Format in all cases: cell-based, human
MOLM13 cells = assay: MTT cell viability assay; conditions: Fig S7b
Method: (§1) FBS and 1% penicillin/streptomycin. […] Media was changed on day 3 or 4 and compounds were resupplied. […] Cell suspensions (100 μL) were transferred to the 96-well plates for each sample in quadruplicate at the time of media change. At day 7, 10 µL of MTT reagent (M6494, Molecular Probes™) was added to each well of the 96 well plate and incubated at 37 °C for 4 h. The formazan was then solubilized by adding 100 µL acidified 10% SDS solution and incubated at 37 °C overnight. Plates were read for absorbance at 570 nm using a PHERAstar BMG microplate reader. The experiments were performed two times in quadruplicates with calculation of mean and SD for each condition. Data were analyzed in Prism 8.0.0 to obtain GI50 values.
(§2) Supplementary Figure 7. […] (a)
(§3) Titration curves from the MTT cell viability assay performed after 4, 7, and 11 (or 10) days of
(§4) Titration curves from the MTT cell viability assay performed after 7 days of treatment of KOPN8 ,
(§5) MOLM13 and MV4;11 cell lines harboring MLL1 translocation (MLL1-r) or K562 cell line (non-
(§6) Representative graphs are shown
(§7) from two independent MTT experiments performed for each cell line.

MV4;11 cells = assay: MTT cell viability assay; conditions: for MV4;11 % activity: Fig S7a
Method: as §1, §2, §3, §4, §5, §6, §7

KOPN8 cells = assay: MTT cell viability assay; conditions: Fig S7a
Method: (§8) Human leukemia cells K562, MV4;11 and RS4;11 (purchased from ATCC) and KOPN8, MOLM13 (purchased from DSMZ) were cultured in RPMI 1640 (Invitrogen) supplemented with 10% heat inactivated (h.i.) FBS and 1% penicillin/streptomycin (Invitrogen). SET2 cells (purchased from DSMZ) were cultured in RPMI 1640 supplemented with 20% h.i. FBS and 1% penicillin/streptomycin. Cells were plated at 1 × 10^5 to 2 × 10^5 cells/mL depending on cell line and treated with 0.25% DMSO or varying concentrations of compounds and incubated at 37 °C, 5% CO2 incubator for 7 days. Media was changed on day 3 or 4 and compounds were resupplied. […] Cell suspensions (100 μL) were transferred to the 96-well plates for each sample in quadruplicate at the time of media change. At day 7, 10 µL of MTT reagent (M6494, Molecular Probes™) was added to each well of the 96 well plate and incubated at 37 °C for 4 h. The formazan was then solubilized by adding 100 µL acidified 10% SDS solution and incubated at 37 °C overnight. Plates were read for absorbance at 570 nm using a PHERAstar BMG microplate reader. The experiments were performed two times in quadruplicates with calculation of mean and SD for each condition. Data were analyzed in Prism 8.0.0 to obtain GI50 values.
as §2, §3, §4, §5, §6
(§9) from two independent MTT experiments performed for each cell line. GI50 values correspond to […]

K562 cells = assay: MTT cell viability assay; conditions: for % activity: Fig S7b
Method: as §8, §2, §3, §4, §5, §6, §9

[1] = test system: MLL leukemia cells (MV4;11, MOLM13, KOPN8, RS4;11); assay: MTT cell viability assay, MLL leukemia cells as a group; conditions: Homo sapiens, MLL leukemia cells
Method: as §8
Supplementary Figure 4. Cell viability assay for AS-6 in MLL leukemia cell lines. Titration curves from the MTT cell viability assay performed after 7 days of treatment of human MLL1- […]
replicates. Representative graphs are shown from two independent MTT experiments performed […]
as §2
Titration curves from the MTT cell viability assay performed after 4, 7, and 11 (or 10) days of […]
Titration curves from the MTT cell viability assay performed after 7 days of treatment of KOPN8 , MOLM13 and MV4;11 cell lines harboring MLL1 translocation (MLL1-r) or K562 cell line (non- […]
Representative graphs are shown from two independent MTT experiments performed for each cell line. GI50 values correspond to […]

With `NC(=S)c1cccc(-c2cn(C3CCN(S(=O)(=O)C(F)(F)F)CC3)c3cc(CNC(=O)C4CNC4)ccc23)c1` [AS-85] the “% activity” value (MOLM13 cells; MOLM-13, log[AS-85] -4.60206) was 46.6646% and 47.2766% and 46.175% and 47.0318%, the “% activity” value (MOLM13 cells; MOLM-13, log[AS-85] -4.90309) was 81.426% and 94.7674% and 77.6316% and 82.4051% and the “% activity” value (MOLM13 cells; MOLM-13, log[AS-85] -5.20412) was 87.0563% and 95.9914% and 92.6867% and 98.1946%. For the same compound, the “% activity” value (MOLM13 cells; MOLM-13, log[AS-85] -5.50515) was 82.6499% and 85.9547% and 94.1555% and 88.7699%, the “% activity” value (MOLM13 cells; MOLM-13, log[AS-85] -5.80618) was 80.9364% and 84.3635% and 82.1603% and 93.6659% and the “% activity” value (MOLM13 cells; MOLM-13, log[AS-85] -6.10721) was 97.5826% and 103.213% and 93.6659% and 105.539%. For the same compound, the “% activity” value (MOLM13 cells; MOLM-13, log[AS-85] -6.40824) was 70.6548% and 70.0428% and 76.1628% and 72.1236%, the “MV4;11 % activity” value (MV4;11 cells; log[AS-85] -4.60206, d4) was 15.9329% and 16.3522% and 18.0892% and 16.4121% and the “MV4;11 % activity” value (MV4;11 cells; log[AS-85] -4.60206, d7) was 5.045% and 5.128% and 5.211%. For the same compound, the “MV4;11 % activity” value (MV4;11 cells; log[AS-85] -4.60206, d11) was 1.161% and 1.032% and 1.118%, the “MV4;11 % activity” value (MV4;11 cells; log[AS-85] -4.90309, d4) was 70.8595% and 67.0859% and 71.758% and 64.1509% and the “MV4;11 % activity” value (MV4;11 cells; log[AS-85] -4.90309, d7) was 25.0571% and 25.9705% and 23.8115% and 22.3998%. The “MV4;11 % activity” value (MV4;11 cells; log[AS-85] -4.90309, d11) was 9.6743% and 10.0613% and 9.029% and 8.943%, the “MV4;11 % activity” value (MV4;11 cells; log[AS-85] -5.20412, d4) was 102.965% and 99.1914% and 99.9102% and 86.1336% and the “MV4;11 % activity” value (MV4;11 cells; log[AS-85] -5.20412, d7) was 53.1243% and 51.7127% and 52.7922% and 54.6191%. The “MV4;11 % activity” value (MV4;11 cells; log[AS-85] -5.20412, d11) was 37.1063% and 36.8053% and 36.9343% and 41.621%, the “MV4;11 % activity” value (MV4;11 cells; log[AS-85] -5.50515, d4) was 92.5427% and 88.3498% and 97.8736% and 88.7691% and the “MV4;11 % activity” value (MV4;11 cells; log[AS-85] -5.50515, d7) was 76.7075% and 69.8983% and 73.8011% and 68.8188%. The “MV4;11 % activity” value (MV4;11 cells; log[AS-85] -5.50515, d11) was 72.8797% and 78.2113% and 64.4953% and 71.1168%, the “MV4;11 % activity” value (MV4;11 cells; log[AS-85] -5.80618, d11) was 77.7384% and 83.5429% and 90.8524% and the “MV4;11 % activity” value (MV4;11 cells; log[AS-85] -6.10721, d4) was 94.4594% and 94.1599% and 94.5792% and 108.955%. The “MV4;11 % activity” value (MV4;11 cells; log[AS-85] -6.10721, d7) was 101.951% and 92.1528% and 106.186% and 104.11%, the “MV4;11 % activity” value (MV4;11 cells; log[AS-85] -6.10721, d11) was 89.8205% and 93.8192% and 105.127% and 95.5821% and the “MV4;11 % activity” value (MV4;11 cells; log[AS-85] -6.40824, d4) was 98.1731% and 105.9% and 87.9305% and 107.996%. The “MV4;11 % activity” value (MV4;11 cells; log[AS-85] -6.40824, d7) was 98.879% and 95.8896% and 100.374% and 104.858%, the “MV4;11 % activity” value (MV4;11 cells; log[AS-85] -6.40824, d11) was 115.404% and 96.872% and 95.3671% and 92.3573% and the “% activity” value (MV4;11 cells; Fig S7b, MV4;11, log[AS-85] -5.80618) was 90.492% and 84.4301% and 90.3259% and 90.8242%. For the same compound, the KOPN8 % activity (KOPN8 cells; log[AS-85] -4.60206, d4) was 16.3539% and 14.6687% and 8.541% and 8.847%, the KOPN8 % activity (KOPN8 cells; log[AS-85] -4.60206, d7) was 5.4864% and the KOPN8 % activity (KOPN8 cells; log[AS-85] -4.60206, d10) was 12.6028% and 11.8131% and 12.208%. The KOPN8 % activity (KOPN8 cells; log[AS-85] -4.90309, d4) was 78.3991% and 80.3907% and 79.1651% and 80.3906%, the KOPN8 % activity (KOPN8 cells; log[AS-85] -4.90309, d7) was 47.9023% and 50.2997% and 49.1932% and 51.4062% and the KOPN8 % activity (KOPN8 cells; log[AS-85] -4.90309, d10) was 23.001% and 25.765% and 16.1566% and 29.977%. The KOPN8 % activity (KOPN8 cells; log[AS-85] -5.20412, d4) was 76.2543% and 85.293% and 81.9226% and 91.2677%, the KOPN8 % activity (KOPN8 cells; log[AS-85] -5.20412, d7) was 72.4297% and 74.2739% and 78.5154% and 71.5076% and the KOPN8 % activity (KOPN8 cells; log[AS-85] -5.20412, d10) was 57.6176% and 47.8776% and 61.0398% and 75.3866%. The KOPN8 % activity (KOPN8 cells; log[AS-85] -5.50515, d4) was 81.7694% and 85.9058% and 95.8637% and 96.7828%, the KOPN8 % activity (KOPN8 cells; log[AS-85] -5.50515, d7) was 82.5726% and 92.5311% and 77.2245% and 78.5154% and the KOPN8 % activity (KOPN8 cells; log[AS-85] -5.50515, d10) was 103.817% and 88.6805% and 64.9885% and 80.7832%. For the same compound, the KOPN8 % activity (KOPN8 cells; log[AS-85] -5.80618, d4) was 78.2459% and 90.8081% and 100.766% and 94.0253%, the KOPN8 % activity (KOPN8 cells; log[AS-85] -5.80618, d7) was 80.7284% and 79.9908% and 94.5597% and 75.0115% and the KOPN8 % activity (KOPN8 cells; log[AS-85] -5.80618, d10) was 93.8137% and 85.6532% and 79.9934% and 79.7302%. For the same compound, the KOPN8 % activity (KOPN8 cells; log[AS-85] -6.10721, d4) was 86.825% and 91.4209% and 95.8637% and 91.5741%, the KOPN8 % activity (KOPN8 cells; log[AS-85] -6.10721, d7) was 99.9078% and 107.284% and 86.6298% and 85.5233% and the KOPN8 % activity (KOPN8 cells; log[AS-85] -6.10721, d10) was 118.032% and 101.579% and 87.2326% and 93.1556%. The KOPN8 % activity (KOPN8 cells; log[AS-85] -6.40824, d4) was 98.6212% and 103.37% and 102.911% and 95.0977%, the KOPN8 % activity (KOPN8 cells; log[AS-85] -6.40824, d7) was 100.461% and 105.072% and 99.7234% and 94.7441% and the KOPN8 % activity (KOPN8 cells; log[AS-85] -6.40824, d10) was 81.3096% and 91.971% and 84.7318% and 80.9148%. For the same compound, the “% activity” value (K562 cells; K562, log[AS-85] -4.60206) was 94.8724% and 99.1495% and 96.3791% and 94.0462%, the “% activity” value (K562 cells; K562, log[AS-85] -4.90309) was 126.464% and 120.486% and 116.938% and 123.451% and the “% activity” value (K562 cells; K562, log[AS-85] -5.20412) was 111.154% and 105.225% and 103.767% and 109.259%. For the same compound, the “% activity” value (K562 cells; K562, log[AS-85] -5.50515) was 104.836% and 103.329% and 104.35% and 109.745%, the “% activity” value (K562 cells; K562, log[AS-85] -5.80618) was 94.1434% and 95.2126% and 95.6501% and 103.183% and the “% activity” value (K562 cells; K562, log[AS-85] -6.10721) was 95.2612% and 103.524% and 101.142% and 100.073%. For the same compound, the “% activity” value (K562 cells; K562, log[AS-85] -6.40824) was 94.0462% and 95.8931% and 100.705% and 97.4484%, the “effect on growth/proliferation of K562 cells” value (K562 cells; leukemia cells without MLL1 translocations) was “no effect” and the GI50 [1] was 5 to 25 µM.
